According to article doi:10.1101/2025.09.18.677102, “Genomic plasticity drives olfactory adaptation in a pest fly” (bioRxiv, 2025):

Molecular target: T1, DsuzOr22a (Drosophila suzukii, UniProt A0AB39ZTG6)
T1 construct: gene LOC108019602; full-length cDNA in pJFRC81 (GFP removed), UAS line expressed in D. melanogaster ab3A empty neuron (Or22ab-Gal4); with Odorant receptor coreceptor (Drosophila melanogaster, endogenous to the host neuron)
T1 sequence (A0AB39ZTG6 1-397): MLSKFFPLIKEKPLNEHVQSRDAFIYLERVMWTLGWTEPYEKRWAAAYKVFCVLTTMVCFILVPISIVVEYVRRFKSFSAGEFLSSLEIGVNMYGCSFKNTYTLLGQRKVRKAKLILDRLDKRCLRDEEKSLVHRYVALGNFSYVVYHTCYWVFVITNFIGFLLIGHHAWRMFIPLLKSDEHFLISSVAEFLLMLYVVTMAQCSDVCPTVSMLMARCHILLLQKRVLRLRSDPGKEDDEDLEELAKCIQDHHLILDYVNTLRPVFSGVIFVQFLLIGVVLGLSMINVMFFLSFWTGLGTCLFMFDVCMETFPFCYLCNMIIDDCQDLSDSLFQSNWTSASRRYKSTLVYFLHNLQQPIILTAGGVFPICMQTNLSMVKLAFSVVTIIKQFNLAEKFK
T1 sequence (Q9VNB5 1-486 partner): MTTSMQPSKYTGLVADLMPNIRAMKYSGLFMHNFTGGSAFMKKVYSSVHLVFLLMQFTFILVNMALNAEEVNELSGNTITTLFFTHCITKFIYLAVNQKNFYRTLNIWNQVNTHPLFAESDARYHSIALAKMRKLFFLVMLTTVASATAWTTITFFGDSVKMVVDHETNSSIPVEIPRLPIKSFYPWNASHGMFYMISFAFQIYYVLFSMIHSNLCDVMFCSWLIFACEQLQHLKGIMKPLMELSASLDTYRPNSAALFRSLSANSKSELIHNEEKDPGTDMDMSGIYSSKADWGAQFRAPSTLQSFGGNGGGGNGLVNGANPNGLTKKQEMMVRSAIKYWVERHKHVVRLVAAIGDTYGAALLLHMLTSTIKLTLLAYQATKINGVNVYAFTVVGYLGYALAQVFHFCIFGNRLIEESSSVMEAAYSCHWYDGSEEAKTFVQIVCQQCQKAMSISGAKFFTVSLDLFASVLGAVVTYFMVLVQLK
Experiment: single sensillum recording, empty neuron
Assay type: cell-based
Settings: odorant 10^-4 dilution in hexane

Row | SMILES | responses (spikes/s) | responses (spikes/s) (also dilution series)
1 | CCCCOC(C)=O [butyl acetate] | toward several ripening fruit esters such as isobutyl acetate, butyl acetate, and isoamyl acetate | 
2 | CC(=O)OCCC(C)C [isoamyl acetate] | toward several ripening fruit esters such as isobutyl acetate, butyl acetate, and isoamyl acetate | 
3 | CC(=O)OCC(C)C [isobutyl acetate] |  | Or22a, which has shifted its tuning toward several ripening fruit esters such as isobutyl acetate
